For one test, the target named is USP6 (Homo sapiens, UniProt P35125). Nature of the test: DUB profiler selectivity panel (Ubiquigent) at […]. Type of test: biochemical.
Another test has as its target T1, USP30 (Homo sapiens, UniProt Q70CQ3).
T1 construct: BLI: residues 64-502Δ179-216 & 288-305 (biotinylated); activity assay: residues 57-517
T1 sequence (Q70CQ3 57-517): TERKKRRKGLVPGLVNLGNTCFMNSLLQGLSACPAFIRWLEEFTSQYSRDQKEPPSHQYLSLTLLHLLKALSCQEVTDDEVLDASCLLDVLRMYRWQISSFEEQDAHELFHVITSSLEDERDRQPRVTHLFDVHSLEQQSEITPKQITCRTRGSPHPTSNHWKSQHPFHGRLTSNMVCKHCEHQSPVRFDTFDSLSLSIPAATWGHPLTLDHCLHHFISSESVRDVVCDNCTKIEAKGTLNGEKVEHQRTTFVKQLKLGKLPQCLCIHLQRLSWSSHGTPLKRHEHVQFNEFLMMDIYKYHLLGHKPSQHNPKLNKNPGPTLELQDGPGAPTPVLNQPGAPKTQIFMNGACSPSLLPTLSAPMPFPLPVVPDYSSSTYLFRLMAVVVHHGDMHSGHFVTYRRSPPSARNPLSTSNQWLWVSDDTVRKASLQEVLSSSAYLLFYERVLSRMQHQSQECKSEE
Nature of the test: bio-layer interferometry (no significant off-rate); IC50 and kinact/KI with purified USP30 and ubiquitin-rhodamine; Ub-PA competition in lysate and cells. It counts as biochemical. The text has this: bio-layer interferometry (no significant off-rate); IC50 and kinact/KI with purified USP30 and ubiquitin-rhodamine; Ub-PA competition in lysate and cells on USP30 | Bio-layer interferometry experiments show binding behaviour that is consistent with covalent modification of USP30
A general note: Biolayer interferometry detects binding as a change in optical thickness at a sensor tip.

SMILES strings stand for the structures.

Sequence of USP6 (P35125 whole entry): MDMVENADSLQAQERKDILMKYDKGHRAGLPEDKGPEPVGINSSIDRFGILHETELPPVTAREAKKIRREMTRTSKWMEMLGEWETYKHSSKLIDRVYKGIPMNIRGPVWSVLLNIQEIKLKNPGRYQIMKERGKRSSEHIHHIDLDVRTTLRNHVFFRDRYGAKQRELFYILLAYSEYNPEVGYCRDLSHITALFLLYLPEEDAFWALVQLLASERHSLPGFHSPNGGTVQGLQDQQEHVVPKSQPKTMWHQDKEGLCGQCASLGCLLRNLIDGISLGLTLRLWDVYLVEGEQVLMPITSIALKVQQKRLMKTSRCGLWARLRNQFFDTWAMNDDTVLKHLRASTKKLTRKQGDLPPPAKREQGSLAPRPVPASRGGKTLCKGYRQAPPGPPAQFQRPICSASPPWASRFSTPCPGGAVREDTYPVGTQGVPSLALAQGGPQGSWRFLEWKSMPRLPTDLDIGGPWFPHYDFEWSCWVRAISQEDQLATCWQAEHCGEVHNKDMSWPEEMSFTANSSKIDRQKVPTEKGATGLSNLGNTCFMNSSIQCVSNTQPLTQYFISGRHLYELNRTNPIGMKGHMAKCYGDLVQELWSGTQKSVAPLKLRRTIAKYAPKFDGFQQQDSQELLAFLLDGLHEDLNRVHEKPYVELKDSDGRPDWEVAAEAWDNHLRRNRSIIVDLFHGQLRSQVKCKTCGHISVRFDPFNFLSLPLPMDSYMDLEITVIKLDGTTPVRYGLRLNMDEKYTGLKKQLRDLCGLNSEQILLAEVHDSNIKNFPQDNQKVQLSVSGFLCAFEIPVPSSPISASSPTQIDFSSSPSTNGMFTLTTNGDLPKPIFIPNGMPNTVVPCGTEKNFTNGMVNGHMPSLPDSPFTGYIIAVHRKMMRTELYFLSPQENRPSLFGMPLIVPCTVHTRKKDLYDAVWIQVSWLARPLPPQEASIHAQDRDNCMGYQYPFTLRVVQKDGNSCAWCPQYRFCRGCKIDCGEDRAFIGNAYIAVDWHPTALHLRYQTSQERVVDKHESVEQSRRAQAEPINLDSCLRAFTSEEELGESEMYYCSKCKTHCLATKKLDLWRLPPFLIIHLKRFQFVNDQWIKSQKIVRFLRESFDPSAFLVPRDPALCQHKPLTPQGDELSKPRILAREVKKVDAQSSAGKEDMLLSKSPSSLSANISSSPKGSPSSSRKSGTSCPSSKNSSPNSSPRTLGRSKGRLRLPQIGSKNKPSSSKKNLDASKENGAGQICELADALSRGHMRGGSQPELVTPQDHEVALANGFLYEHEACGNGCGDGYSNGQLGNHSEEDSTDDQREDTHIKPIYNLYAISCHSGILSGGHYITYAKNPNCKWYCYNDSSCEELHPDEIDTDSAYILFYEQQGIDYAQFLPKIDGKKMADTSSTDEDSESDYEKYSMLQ

For `N#CN1CCC(NC(=O)c2cc(-c3ccccc3Oc3ccccc3)n[nH]2)C1` (centres unmarked) [FT385, FT3967385], the “DUB profiler selectivity panel (Ubiquigent) at 2, 20 and 200 nM” value on USP6 was “Only one other family member, the plasma membrane–associated USP6, showed a significant degree of inhibition”. Also, the IC50 – broadly, the concentration at which inhibition is half-maximal – on USP30 is about 1 nM.

Values taken from article PMC7362391, “USP30 sets a trigger threshold for PINK1–PARKIN amplification of mitochondrial ubiquitylation” (Life Science Alliance, 2020).
